Biological target: hTREM2 (Homo sapiens, UniProt Q9NZC2)
Assay: Phospho-Syk AlphaScreen/AlphaLISA assay in TREM2 and DAP12 overexpressing HEK293 cells (Example A1)
Format: cell-based
Set-up: expressed in transfected cells
Details: HEK293 cells; for EC50: read-out: hTREM2 EC50
Method in brief: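 Agonism read as Syk phosphorylation: compounds in 1% DMSO applied 45 min at room temperature to TREM2/DAP12-HEK293 cells after 20 h culture. Lysis buffer with phosphatase inhibitors and anti-phospho-Syk plus biotinylated anti-Syk antibodies, then AlphaLISA beads (680 nm excitation); percent of control computed from antibody/isotype wells, curves fitted sigmoidally.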

Sequence of hTREM2 (Q9NZC2 19-230): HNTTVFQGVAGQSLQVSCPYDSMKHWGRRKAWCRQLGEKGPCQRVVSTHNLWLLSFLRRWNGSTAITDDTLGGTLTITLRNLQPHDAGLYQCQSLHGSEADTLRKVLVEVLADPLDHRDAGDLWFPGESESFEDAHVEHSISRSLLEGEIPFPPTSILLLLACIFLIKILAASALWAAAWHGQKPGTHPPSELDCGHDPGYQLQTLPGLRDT
Sequence of hTREM2 (O43914 22-113 partner): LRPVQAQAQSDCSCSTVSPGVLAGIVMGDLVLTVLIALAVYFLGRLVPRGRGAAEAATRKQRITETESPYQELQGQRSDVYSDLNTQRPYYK

| SMILES | Emax | EC50 [µM] |
| --- | --- | --- |
| Cc1nc2cc(N3CCO[C@H](c4cccc(Cl)c4)C3)nc(-c3ccc(Cl)cc3F)c2c(=O)n1C [Example 239, (R)-5-(4-chloro-2-fluorophenyl)-7-(2-(3-chlorophenyl)morpholino)-2,3-dimethylpyrido[4,3-d]pyrimidin-4(3H)-one] | +++ (Emax>200 and ≤300) | 3 to 100 |
| Cc1nc2cc(N3CCC[C@H](N4CCCC4)C3)nc(-c3ccc(Cl)cc3F)c2c(=O)n1C [Example 242, (S)-5-(4-chloro-2-fluorophenyl)-2,3-dimethyl-7-(3-(pyrrolidin-1-yl)piperidin-1-yl)pyrido[4,3-d]pyrimidin-4(3H)-one] | +++ (Emax>200 and ≤300) | 3 to 100 |
| COc1cc([C@@H]2CN(c3cc4nc(C)n(C)c(=O)c4c(-c4ccc(Cl)cc4F)n3)CCO2)ccn1 [Example 243, (R)-5-(4-chloro-2-fluorophenyl)-7-(2-(2-methoxypyridin-4-yl)morpholino)-2,3-dimethylpyrido[4,3-d]pyrimidin-4(3H)-one] | ++++ (Emax>300) | < 0.05 |
| Cc1nc2cc(N3CCC[C@H](N4CCC4)C3)nc(-c3ccc(Cl)cc3F)c2c(=O)n1C [Example 245, (S)-7-(3-(azetidin-1-yl)piperidin-1-yl)-5-(4-chloro-2-fluorophenyl)-2,3-dimethylpyrido[4,3-d]pyrimidin-4(3H)-one] | ++ (Emax>100 and ≤200) | 3 to 100 |
| Cc1nc2cc(N3CCC(F)(F)[C@H](N(C)C)C3)nc(-c3ccc(Cl)cc3F)c2c(=O)n1C [Example 250, (R)-5-(4-chloro-2-fluorophenyl)-7-(3-(dimethylamino)-4,4-difluoropiperidin-1-yl)-2,3-dimethylpyrido[4,3-d]pyrimidin-4(3H)-one] | ++++ (Emax>300) | 3 to 100 |
| Cc1nc2cc(N3CCO[C@@H](c4cnn(C(F)F)c4)C3)nc(-c3ccc(Cl)cc3F)c2c(=O)n1C [Example 253, (S)-5-(4-chloro-2-fluorophenyl)-7-(2-(1-(difluoromethyl)-1H-pyrazol-4-yl)morpholino)-2,3-dimethylpyrido[4,3-d]pyrimidin-4(3H)-one] | ++++ (Emax>300) | < 0.05 |
| Cc1nc2cc(N3CC[C@H](N(C)C)C3)nc(-c3ccc(Cl)cc3F)c2c(=O)n1C [Example 255, (S)-5-(4-chloro-2-fluorophenyl)-7-(3-(dimethylamino)pyrrolidin-1-yl)-2,3-dimethylpyrido[4,3-d]pyrimidin-4(3H)-one] | +++ (Emax>200 and ≤300) | 3 to 100 |
| Cc1nc2cc(N3CC[C@H](C(F)(F)F)C3)nc(-c3ccc(Cl)cc3F)c2c(=O)n1C [Example 257, (S)-5-(4-chloro-2-fluorophenyl)-2,3-dimethyl-7-(3-(trifluoromethyl)pyrrolidin-1-yl)pyrido[4,3-d]pyrimidin-4(3H)-one] | ++ (Emax>100 and ≤200) | 0.5 to 3 |
| Cc1nc2cc(N3CC[C@@H](C(F)F)C3)nc(-c3ccc(Cl)cc3F)c2c(=O)n1C [Example 258, (R)-5-(4-chloro-2-fluorophenyl)-7-(3-(difluoromethyl)pyrrolidin-1-yl)-2,3-dimethylpyrido[4,3-d]pyrimidin-4(3H)-one] | +++ (Emax>200 and ≤300) | 3 to 100 |
| Cc1nc2cc(N3CC[C@H](C(F)F)C3)nc(-c3ccc(Cl)cc3F)c2c(=O)n1C [Example 259, (S)-5-(4-chloro-2-fluorophenyl)-7-(3-(difluoromethyl)pyrrolidin-1-yl)-2,3-dimethylpyrido[4,3-d]pyrimidin-4(3H)-one] | ++ (Emax>100 and ≤200) | 3 to 100 |
| Cc1nc2cc(N3CC[C@@H](c4cccnc4)C3)nc(-c3ccc(Cl)cc3F)c2c(=O)n1C [Example 260, (S)-5-(4-chloro-2-fluorophenyl)-2,3-dimethyl-7-(3-(pyridin-3-yl)pyrrolidin-1-yl)pyrido[4,3-d]pyrimidin-4(3H)-one] | ++++ (Emax>300) | 3 to 100 |
| Cc1nc2cc(N3CC[C@H](c4cccnc4)C3)nc(-c3ccc(Cl)cc3F)c2c(=O)n1C [Example 261, (R)-5-(4-chloro-2-fluorophenyl)-2,3-dimethyl-7-(3-(pyridin-3-yl)pyrrolidin-1-yl)pyrido[4,3-d]pyrimidin-4(3H)-one] | ++++ (Emax>300) | 3 to 100 |
| Cc1c([C@H]2CN(c3cc4nc(C)n(C)c(=O)c4c(-c4ccc(Cl)cc4F)n3)CCO2)cnn1C [Example 262, (S)-5-(4-chloro-2-fluorophenyl)-7-(2-(1,5-dimethyl-1H-pyrazol-4-yl)morpholino)-2,3-dimethylpyrido[4,3-d]pyrimidin-4(3H)-one] | +++ (Emax>200 and ≤300) | 0.5 to 3 |

Second part, the compound after the results:

| Emax | EC50 [µM] | SMILES |
| --- | --- | --- |
| ++++ (Emax>300) | 3 to 100 | Cc1nc2cc(N3CCO[C@H](c4ccsc4)C3)nc(-c3ccc(Cl)cc3F)c2c(=O)n1C [Example 240, (R)-5-(4-chloro-2-fluorophenyl)-2,3-dimethyl-7-(2-(thiophen-3-yl)morpholino)pyrido[4,3-d]pyrimidin-4(3H)-one] |
| +++ (Emax>200 and ≤300) | 3 to 100 | CCc1nnc([C@@H]2CN(c3cc4nc(C)n(C)c(=O)c4c(-c4ccc(Cl)cc4F)n3)CCO2)[nH]1 [Example 241, (S)-5-(4-chloro-2-fluorophenyl)-7-(2-(5-ethyl-4H-1,2,4-triazol-3-yl)morpholino)-2,3-dimethylpyrido[4,3-d]pyrimidin-4(3H)-one] |
| +++ (Emax>200 and ≤300) | 3 to 100 | Cc1nc2cc(N3CCC[C@@H](N(C)C)C3)nc(-c3ccc(Cl)cc3F)c2c(=O)n1C [Example 244, (R)-5-(4-chloro-2-fluorophenyl)-7-(3-(dimethylamino)piperidin-1-yl)-2,3-dimethylpyrido[4,3-d]pyrimidin-4(3H)-one] |
| +++ (Emax>200 and ≤300) | 3 to 100 | Cc1nc2cc(N3CCC[C@@H](N4CCC4)C3)nc(-c3ccc(Cl)cc3F)c2c(=O)n1C [Example 246, (R)-7-(3-(azetidin-1-yl)piperidin-1-yl)-5-(4-chloro-2-fluorophenyl)-2,3-dimethylpyrido[4,3-d]pyrimidin-4(3H)-one] |
| ++ (Emax>100 and ≤200) | 3 to 100 | Cc1nc2cc(N3Cc4cccnc4C3)nc(-c3ccc(Cl)cc3F)c2c(=O)n1C [Example 247, 5-(4-chloro-2-fluorophenyl)-7-(5,7-dihydro-6H-pyrrolo[3,4-b]pyridin-6-yl)-2,3-dimethylpyrido [4,3-d]pyrimidin-4(3H)-one] |
| +++ (Emax>200 and ≤300) | 3 to 100 | Cc1nc2cc(N3CCc4ncccc4C3)nc(-c3ccc(Cl)cc3F)c2c(=O)n1C [Example 248, 5-(4-chloro-2-fluorophenyl)-7-(7,8-dihydro-1,6-naphthyridin-6(5H)-yl)-2,3-dimethylpyrido[4,3-d]pyrimidin-4(3H)-one] |
| ++++ (Emax>300) | 0.5 to 3 | Cc1nc2cc(N3CCC(F)(F)[C@H](N4CCC4)C3)nc(-c3ccc(Cl)cc3F)c2c(=O)n1C [Example 249, (R)-7-(3-(azetidin-1-yl)-4,4-difluoropiperidin-1-yl)-5-(4-chloro-2-fluorophenyl)-2,3-dimethylpyrido[4,3-d]pyrimidin-4(3H)-one] |
| ++ (Emax>100 and ≤200) | 3 to 100 | Cc1nc2cc(N3CCC[C@@H](C4CNC4)C3)nc(-c3ccc(Cl)cc3F)c2c(=O)n1C [Example 251, (S)-7-(3-(azetidin-3-yl)piperidin-1-yl)-5-(4-chloro-2-fluorophenyl)-2,3-dimethylpyrido[4,3-d]pyrimidin-4(3H)-one] |
| +++ (Emax>200 and ≤300) | 3 to 100 | Cc1nc2cc(N3CCC[C@H](C4CN(C)C4)C3)nc(-c3ccc(Cl)cc3F)c2c(=O)n1C [Example 252, (R)-5-(4-chloro-2-fluorophenyl)-2,3-dimethyl-7-(3-(1-methylazetidin-3-yl)piperidin-1-yl)pyrido[4,3-d]pyrimidin-4(3H)-one] |
| ++++ (Emax>300) | 3 to 100 | Cc1nc2cc(N3CC[C@H](c4ccncc4)C3)nc(-c3ccc(Cl)cc3F)c2c(=O)n1C [Example 254, (R)-5-(4-chloro-2-fluorophenyl)-2,3-dimethyl-7-(3-(pyridin-4-yl)pyrrolidin-1-yl)pyrido[4,3-d]pyrimidin-4(3H)-one] |
| ++++ (Emax>300) | 3 to 100 | Cc1nc2cc(N3CC[C@@H](C(F)(F)F)C3)nc(-c3ccc(Cl)cc3F)c2c(=O)n1C [Example 256, (R)-5-(4-chloro-2-fluorophenyl)-2,3-dimethyl-7-(3-(trifluoromethyl)pyrrolidin-1-yl)pyrido[4,3-d]pyrimidin-4(3H)-one] |
| +++ (Emax>200 and ≤300) | 0.05 to 0.5 | Cc1nn(C)cc1[C@H]1CN(c2cc3nc(C)n(C)c(=O)c3c(-c3ccc(Cl)cc3F)n2)CCO1 [Example 263, (S)-5-(4-chloro-2-fluorophenyl)-7-(2-(1,3-dimethyl-1H-pyrazol-4-yl)morpholino)-2,3-dimethylpyrido[4,3-d]pyrimidin-4(3H)-one] |
| +++ (Emax>200 and ≤300) | 0.05 to 0.5 | CCn1c(C)nc2cc(N3CCO[C@H](c4noc(C)n4)C3)nc(-c3ccc(Cl)cc3F)c2c1=O [Example 264, (S)-5-(4-chloro-2-fluorophenyl)-3-ethyl-2-methyl-7-(2-(5-methyl-1,2,4-oxadiazol-3-yl)morpholino)pyrido[4,3-d]pyrimidin-4(3H)-one] |
| +++ (Emax>200 and ≤300) | 0.5 to 3 | Cc1nc2cc(N3CCO[C@H](c4ccnc(C(F)(F)F)c4)C3)nc(-c3ccc(Cl)cc3F)c2c(=O)n1C [Example 265, (R)-5-(4-chloro-2-fluorophenyl)-2,3-dimethyl-7-(2-(2-(trifluoromethyl)pyridin-4-yl)morpholino)pyrido[4,3-d]pyrimidin-4(3H)-one] |

Reference: US20250388574A1, “HETEROCYCLIC COMPOUNDS AS TRIGGERING RECEPTOR EXPRESSED ON MYELOID CELLS 2 AGONISTS AND METHODS OF USE” (AMGEN INC., priority 2020, published 2025)
